Measured values taken from patent publication US10556914B2, “Substituted isoxazolopyridazinones and isothiazolopyridazinones and methods of use” (AbbVie Inc., priority 2015, dated 2020).

Biological target: GABA-B receptor (Rattus norvegicus (Rat), UniProt O88871+Q9Z0U4)
Assay: [35S]GTPgS Binding Assay (rat brain cortex membranes, native receptor)
Type: biochemical
Settings: rat cortical membranes; in the presence of 1 μM GABA (EC25); basal binding 0%, maximal binding (1 mM GABA) 100%
Description: Preparation of Rat Brain Membranes for Native Receptor Assays
Membranes from rat brain cortex were prepared as described in detail by Olpe et al. and stored at concentrations of 1.66 mg/mL protein at −80° C. until required. (Olpe, H.-R, et al. Eur J Pharmacol 1990; 187: 27-38).
[^35S]GTPgS Binding Assay
The samples were incubated at room temperature for 60 minutes on a shaker. The incubation was stopped by rapid vacuum filtration over glass-fiber filter plates (UniFilter-96 well, GF/B membrane plates, PerkinElmer) using a 96-well plate harvester (TOMTEK© Harvester). The UniFilter plate was washed five times with ice-cold wash buffer (50 mM Tris-HCl buffer, pH 7.7, 10 mM MgCl2, and 100 mM NaCl. After filtration the plate was dried for 90 minutes at 55° C. The plates were closed on the bottom with black sealing membranes, and liquid scintillation cocktail (35 μL, Betaplate Scint, PerkinElmer) was added to each well. After sealing the top of the plate, an additional incubation step of 90 minutes at room temperature followed before measuring the plate. The amount of membrane-bound [^35S]GTPgS was measured using a 96-well plate reader (Microbeta®, PerkinElmer). Nonspecific binding was measured in the presence of unlabeled 10 μM of GTPgS (Millipore) and without GABA. Basal binding was measured in the absence of 1 μM GABA, and maximal binding was measured in the presence of GABA using 1 mM GABA concentrations.
Data analysis. The concentration-response curves of compounds of the present disclosure in the presence of EC25 of GABA-B receptor agonist were generated using the GraphPad Prism® program (GraphPad Software, San Diego, Calif.). Data was normalized using basal binding as 0% and maximal binding as 100%. The curves were fitted by nonlinear regression allowing determination of EC50 values from sigmoidal dose-response curves. Each curve was performed using triplicate sample per date point and 10 concentrations.

Sequence of GABA-B receptor (Q9Z0U4 17-960): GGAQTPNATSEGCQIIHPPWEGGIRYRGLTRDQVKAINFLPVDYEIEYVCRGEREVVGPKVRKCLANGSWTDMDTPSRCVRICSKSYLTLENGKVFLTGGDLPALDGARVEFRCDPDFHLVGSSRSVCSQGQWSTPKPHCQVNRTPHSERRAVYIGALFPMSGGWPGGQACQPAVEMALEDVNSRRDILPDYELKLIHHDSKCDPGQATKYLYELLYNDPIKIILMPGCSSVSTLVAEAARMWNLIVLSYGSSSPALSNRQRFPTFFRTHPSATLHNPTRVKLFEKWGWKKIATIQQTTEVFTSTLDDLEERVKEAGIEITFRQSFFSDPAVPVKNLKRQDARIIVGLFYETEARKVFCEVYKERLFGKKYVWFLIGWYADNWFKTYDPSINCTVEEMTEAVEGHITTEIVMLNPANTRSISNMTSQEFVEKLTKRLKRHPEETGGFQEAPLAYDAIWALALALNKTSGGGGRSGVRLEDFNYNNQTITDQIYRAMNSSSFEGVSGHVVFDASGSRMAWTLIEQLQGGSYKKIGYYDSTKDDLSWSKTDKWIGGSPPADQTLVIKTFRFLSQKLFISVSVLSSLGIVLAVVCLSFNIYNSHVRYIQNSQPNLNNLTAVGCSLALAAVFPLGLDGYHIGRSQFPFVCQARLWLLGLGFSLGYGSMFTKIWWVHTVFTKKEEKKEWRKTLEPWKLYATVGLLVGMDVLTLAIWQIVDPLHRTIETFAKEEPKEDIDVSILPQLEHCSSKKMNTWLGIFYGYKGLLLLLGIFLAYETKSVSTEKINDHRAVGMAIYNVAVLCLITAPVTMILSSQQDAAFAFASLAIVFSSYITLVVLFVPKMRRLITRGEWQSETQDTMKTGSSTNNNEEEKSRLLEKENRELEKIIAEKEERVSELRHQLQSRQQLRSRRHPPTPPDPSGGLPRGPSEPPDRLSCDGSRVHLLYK
Sequence of GABA-B receptor (O88871 41-940): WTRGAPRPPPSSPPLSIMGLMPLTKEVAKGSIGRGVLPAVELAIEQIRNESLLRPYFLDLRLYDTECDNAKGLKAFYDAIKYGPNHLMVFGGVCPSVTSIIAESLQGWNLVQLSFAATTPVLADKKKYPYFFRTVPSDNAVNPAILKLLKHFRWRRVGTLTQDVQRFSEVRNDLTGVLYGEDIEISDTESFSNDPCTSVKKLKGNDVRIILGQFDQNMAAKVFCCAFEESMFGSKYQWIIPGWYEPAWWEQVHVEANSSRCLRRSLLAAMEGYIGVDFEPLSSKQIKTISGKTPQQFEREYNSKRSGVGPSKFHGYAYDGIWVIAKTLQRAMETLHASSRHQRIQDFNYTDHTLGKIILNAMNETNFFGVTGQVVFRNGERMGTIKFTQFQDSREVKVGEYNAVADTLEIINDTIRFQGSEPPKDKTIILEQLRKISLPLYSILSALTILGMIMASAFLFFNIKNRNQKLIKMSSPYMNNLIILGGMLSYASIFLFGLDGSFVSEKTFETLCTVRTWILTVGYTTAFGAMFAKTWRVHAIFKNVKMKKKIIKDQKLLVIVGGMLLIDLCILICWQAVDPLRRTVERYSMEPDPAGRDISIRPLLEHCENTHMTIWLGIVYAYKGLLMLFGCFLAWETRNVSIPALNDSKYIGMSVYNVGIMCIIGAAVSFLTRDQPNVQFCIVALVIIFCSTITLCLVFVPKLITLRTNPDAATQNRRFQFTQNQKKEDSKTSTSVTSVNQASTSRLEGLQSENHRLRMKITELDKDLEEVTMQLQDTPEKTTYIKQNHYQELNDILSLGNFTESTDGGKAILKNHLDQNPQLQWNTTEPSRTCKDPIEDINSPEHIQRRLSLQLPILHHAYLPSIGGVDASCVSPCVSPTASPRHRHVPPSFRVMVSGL

EC50 [nM] | Compound
2290 | COc1ccccc1-c1nn(Cc2cc(C(F)(F)F)ccc2F)c(=O)c2c(C)noc12 [Example 46, 5-[2-fluoro-5-(trifluoromethyl)benzyl]-7-(2-methoxyphenyl)-3-methyl[1,2]oxazolo[4,5-d]pyridazin-4(5H)-one]
> 10000 | CC(=O)Nc1cc(-c2nn(Cc3ccc(F)c(C(F)(F)F)c3)c(=O)c3c(C)noc23)ccc1F [Example 61, N-(2-fluoro-5-{5-[4-fluoro-3-(trifluoromethyl)benzyl]-3-methyl-4-oxo-4,5-dihydro[1,2]oxazolo[4,5-d]pyridazin-7-yl}phenyl)acetamide]
80 | COc1ccc(NS(C)(=O)=O)cc1-c1nn(C(C)c2ccc(Cl)cc2)c(=O)c2c(C)noc12 (stereo not drawn) [Example 55, N-(3-{5-[1-(4-chlorophenyl)ethyl]-3-methyl-4-oxo-4,5-dihydro[1,2]oxazolo[4,5-d]pyridazin-7-yl}-4-methoxyphenyl)methanesulfonamide]
501 | Cc1noc2c(-c3cccc(N)c3)nn(C(C)c3ccc(Cl)cc3)c(=O)c12 (stereo not drawn) [Example 126, 7-(3-aminophenyl)-5-[1-(4-chlorophenyl)ethyl]-3-methyl[1,2]oxazolo[4,5-d]pyridazin-4(5H)-one]
3710 | COc1ccccc1-c1nn(Cc2ccc(OC)c(C(F)(F)F)c2)c(=O)c2c(C)noc12 [Example 101, 7-(2-methoxyphenyl)-5-[4-methoxy-3-(trifluoromethyl)benzyl]-3-methyl[1,2]oxazolo[4,5-d]pyridazin-4(5H)-one]
> 10000 | COc1ccc(-c2nn(Cc3ccc(Cl)cc3)c(=O)c3c(C)noc23)cc1 [Example 2, 5-(4-chlorobenzyl)-7-(4-methoxyphenyl)-3-methyl[1,2]oxazolo[4,5-d]pyridazin-4(5H)-one]
> 10000 | Cc1noc2c(-c3cc(C(F)(F)F)ccc3N)nn(C(C)c3ccc(Cl)cc3)c(=O)c12 (stereo not drawn) [Example 11, 7-[2-amino-5-(trifluoromethyl)phenyl]-5-[1-(4-chlorophenyl)ethyl]-3-methyl[1,2]oxazolo[4,5-d]pyridazin-4(5H)-one]
1210 | Cc1noc2c(-c3cccnc3)nn(C(C)c3ccc(Cl)cc3)c(=O)c12 (stereo not drawn) [Example 109, 5-[1-(4-chlorophenyl)ethyl]-3-methyl-7-(pyridin-3-yl)[1,2]oxazolo[4,5-d]pyridazin-4(5H)-one]
39 | COc1ccc(C(=O)O)cc1-c1nn(C(C)c2ccc(Cl)cc2)c(=O)c2c(C)noc12 (stereo not drawn) [Example 73]
3800 | Cc1noc2c(-c3ccccc3)nn(Cc3ccc(Cl)cc3)c(=O)c12 [Example 122, 5-(4-chlorobenzyl)-3-methyl-7-phenyl[1,2]oxazolo[4,5-d]pyridazin-4(5H)-one]
2760 | Cc1noc2c(-c3cccnc3N)nn(C(C)c3ccc(Cl)cc3)c(=O)c12 (stereo not drawn) [Example 86, 7-(2-aminopyridin-3-yl)-5-[1-(4-chlorophenyl)ethyl]-3-methyl[1,2]oxazolo[4,5-d]pyridazin-4(5H)-one]
3410 | 7-(4-fluorophenyl)-3-methyl-5-(pyridin-4-ylmethyl)[1,2]oxazolo[4,5-d]pyridazin-4(5H)-one [Example 74]
> 10000 | CCCc1noc2c(-c3cc(OC)ccc3OC)nn(Cc3ccc(Cl)cc3)c(=O)c12 [Example 52, 5-(4-chlorobenzyl)-7-(2,5-dimethoxyphenyl)-3-propyl[1,2]oxazolo[4,5-d]pyridazin-4(5H)-one]
43 | COc1ccc(NC(C)=O)cc1-c1nn([C@@H](C)c2ccc(Cl)cc2)c(=O)c2c(C)noc12 [Example 117, N-(3-{5-[(1S)-1-(4-chlorophenyl)ethyl]-3-methyl-4-oxo-4,5-dihydro[1,2]oxazolo[4,5-d]pyridazin-7-yl}-4-methoxyphenyl)acetamide]
1930 | Cc1ccccc1-c1nn(Cc2ccc(Cl)cc2)c(=O)c2c(C)noc12 [Example 76, 5-(4-chlorobenzyl)-3-methyl-7-(2-methylphenyl)[1,2]oxazolo[4,5-d]pyridazin-4(5H)-one]
> 10000 | COc1ccc(NC(C)=O)cc1-c1nn([C@H](C)c2ccc(Cl)cc2)c(=O)c2c(C3CC3)noc12 [Example 3, N-(3-{5-[(1R)-1-(4-chlorophenyl)ethyl]-3-cyclopropyl-4-oxo-4,5-dihydro[1,2]oxazolo[4,5-d]pyridazin-7-yl}-4-methoxyphenyl)acetamide]
1030 | COc1ccc(-c2nn(Cc3ccc(Cl)cc3)c(=O)c3c(C)noc23)c(OC)c1 [Example 87, 5-(4-chlorobenzyl)-7-(2,4-dimethoxyphenyl)-3-methyl[1,2]oxazolo[4,5-d]pyridazin-4(5H)-one]
4120 | CCn1nccc1-c1nn(C(C)c2ccc(Cl)cc2)c(=O)c2c(C)noc12 (stereo not drawn) [Example 115, 5-[1-(4-chlorophenyl)ethyl]-7-(1-ethyl-1H-pyrazol-5-yl)-3-methyl[1,2]oxazolo[4,5-d]pyridazin-4(5H)-one]
2130 | COc1ccccc1-c1nn(Cc2ccc(Cl)cc2)c(=O)c2c(C)noc12 [Example 67, 5-(4-chlorobenzyl)-7-(2-methoxyphenyl)-3-methyl[1,2]oxazolo[4,5-d]pyridazin-4(5H)-one]
578 | COc1ccc(OC)c(-c2nn(Cc3ccc(Cl)cc3)c(=O)c3c(C4CC4)noc23)c1 [Example 47, 5-(4-chlorobenzyl)-3-cyclopropyl-7-(2,5-dimethoxyphenyl)[1,2]oxazolo[4,5-d]pyridazin-4(5H)-one]
48 | COc1ccc(OC)c(-c2nn([C@@H](C)c3ccc(Cl)cc3)c(=O)c3c(C4CC4)noc23)c1 [Example 68, 5-[(1S)-1-(4-chlorophenyl)ethyl]-3-cyclopropyl-7-(2,5-dimethoxyphenyl)[1,2]oxazolo[4,5-d]pyridazin-4(5H)-one]
3090 | Cc1noc2c(-c3ccc(F)cc3)nn(Cc3ccc(Cl)cc3)c(=O)c12 [Example 83, 5-(4-chlorobenzyl)-7-(4-fluorophenyl)-3-methyl[1,2]oxazolo[4,5-d]pyridazin-4(5H)-one]
2120 | CCCc1noc2c(-c3cccc(NC(C)=O)c3)nn(Cc3ccc(Cl)cc3)c(=O)c12 [Example 91, N-{3-[5-(4-chlorobenzyl)-4-oxo-3-propyl-4,5-dihydro[1,2]oxazolo[4,5-d]pyridazin-7-yl]phenyl}acetamide]
846 | COc1ccc(OC)c(-c2nn(Cc3ccc(Cl)cc3)c(=O)c3c(C)noc23)c1 [Example 102, 5-(4-chlorobenzyl)-7-(2,5-dimethoxyphenyl)-3-methyl[1,2]oxazolo[4,5-d]pyridazin-4(5H)-one]
3670 | COc1ccc(-c2nn(Cc3ccc(F)c(C(F)(F)F)c3)c(=O)c3c(C)noc23)c(OC)c1 [Example 37, 7-(2,4-dimethoxyphenyl)-5-[4-fluoro-3-(trifluoromethyl)benzyl]-3-methyl[1,2]oxazolo[4,5-d]pyridazin-4(5H)-one]
2130 | Cc1noc2c(-c3ccccc3N)nn(C(C)c3ccc(Cl)cc3)c(=O)c12 (stereo not drawn) [Example 14, 7-(2-aminophenyl)-5-[1-(4-chlorophenyl)ethyl]-3-methyl[1,2]oxazolo[4,5-d]pyridazin-4(5H)-one]
982 | Cc1noc2c(-c3cccs3)nn(Cc3ccc(Cl)cc3)c(=O)c12 [Example 56, 5-(4-chlorobenzyl)-3-methyl-7-(thiophen-2-yl)[1,2]oxazolo[4,5-d]pyridazin-4(5H)-one]
